Assays:
Test in all cases: Test E pre-/postemergence plant response
Type in all cases: in vivo
[1] = test system: dallisgrass (Paspalum dilatatum); conditions: scale 0 to 100
Method in brief: (§1)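 Steps: sow seeds; apply compound preemergence in a non-phytotoxic solvent/surfactant formulation; in parallel, spray the same formulation postemergence on 1- to 4-leaf plants (2–18 cm); hold 14–21 days in a greenhouse; rate visually vs controls, 0 = no effect, 100 = complete control.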

[2] = test system: common chickweed (Stellaria media); conditions: Postemergence, scale 0 to 100
Method in brief: as §1

[3] = test system: black mustard (Brassica nigra); conditions: scale 0 to 100
Method in brief: as §1

[4] = test system: southern (S.) sandbur (Cenchrus echinatus); conditions: scale 0 to 100
Method in brief: as §1

[5] = test system: quackgrass (Elytrigia repens); conditions: scale 0 to 100
Method in brief: as §1

[6] = test system: bermudagrass (Cynodon dactylon); conditions: scale 0 to 100
Method in brief: as §1

[7] = test system: johnsongrass (Sorghum halepense); conditions: scale 0 to 100
Method in brief: as §1

[8] = test system: common purslane (Portulaca oleracea); conditions: scale 0 to 100
Method in brief: as §1

[9] = test system: surinam grass (Brachiaria decumbens); conditions: scale 0 to 100
Method in brief: as §1

[10] = test system: barnyardgrass (Echinochloa crus-galli); conditions: scale 0 to 100
Method in brief: as §1

[11] = test system: green foxtail (Setaria viridis); conditions: scale 0 to 100
Method in brief: as §1

[12] = test system: common groundsel (Senecio vulgaris); conditions: Postemergence, scale 0 to 100
Method in brief: as §1

[13] = test system: goosegrass (Eleusine indica); conditions: scale 0 to 100
Method in brief: as §1

[14] = test system: large crabgrass (Digitaria sanguinalis); conditions: scale 0 to 100
Method in brief: as §1

CCc1cc(-c2ccc(Cl)cc2)nn1-c1c(OS(C)(=O)=O)cnn(C)c1=O [Compound 39]
60: Plant response rating, Dallisgrass ([1]; Postemergence, 8 g ai/ha) | Plant response rating, Quackgrass ([5]; 16 g ai/ha, Preemergence) | Plant response rating, Quackgrass ([5]; Postemergence, 31 g ai/ha) | Plant response rating, Quackgrass ([5]; Postemergence, 62 g ai/ha) | Plant response rating, Foxtail, Green ([11]; Postemergence, 8 g ai/ha) | Plant response rating, Crabgrass, Large ([14]; 16 g ai/ha, Preemergence)
85: Plant response rating, Sandbur, S. ([4]; Postemergence, 16 g ai/ha)
30: Plant response rating, Quackgrass ([5]; Postemergence, 16 g ai/ha) | Plant response rating, Crabgrass, Large ([14]; 8 g ai/ha, Preemergence)
35: Plant response rating, Dallisgrass ([1]; 8 g ai/ha, Preemergence) | Plant response rating, Bermudagrass ([6]; Postemergence, 8 g ai/ha) | Plant response rating, Johnsongrass ([7]; Postemergence, 8 g ai/ha) | Plant response rating, Goosegrass ([13]; Postemergence, 8 g ai/ha)
0: Plant response rating, Chickweed ([2]; 8 g ai/ha) | Plant response rating, Chickweed ([2]; 16 g ai/ha) | Plant response rating, Chickweed ([2]; 31 g ai/ha) | Plant response rating, Chickweed ([2]; 62 g ai/ha) | Plant response rating, Mustard, Black ([3]; 8 g ai/ha, Preemergence) | Plant response rating, Mustard, Black ([3]; 16 g ai/ha, Preemergence) | Plant response rating, Mustard, Black ([3]; 31 g ai/ha, Preemergence) | Plant response rating, Mustard, Black ([3]; 62 g ai/ha, Preemergence) | Plant response rating, Mustard, Black ([3]; Postemergence, 8 g ai/ha) | Plant response rating, Mustard, Black ([3]; Postemergence, 16 g ai/ha) | Plant response rating, Mustard, Black ([3]; Postemergence, 31 g ai/ha) | Plant response rating, Mustard, Black ([3]; Postemergence, 62 g ai/ha) | Plant response rating, Quackgrass ([5]; Postemergence, 8 g ai/ha) | Plant response rating, Purslane ([8]; 16 g ai/ha, Preemergence) | Plant response rating, Purslane ([8]; 31 g ai/ha, Preemergence) | Plant response rating, Purslane ([8]; 62 g ai/ha, Preemergence) | Plant response rating, Purslane ([8]; Postemergence, 8 g ai/ha) | Plant response rating, Purslane ([8]; Postemergence, 16 g ai/ha) | Plant response rating, Purslane ([8]; Postemergence, 31 g ai/ha) | Plant response rating, Purslane ([8]; Postemergence, 62 g ai/ha) | Plant response rating, Groundsel ([12]; 31 g ai/ha) | Plant response rating, Groundsel ([12]; 62 g ai/ha)
90: Plant response rating, Sandbur, S. ([4]; 16 g ai/ha, Preemergence) | Plant response rating, Barnyardgrass ([10]; 8 g ai/ha, Preemergence) | Plant response rating, Barnyardgrass ([10]; 16 g ai/ha, Preemergence) | Plant response rating, Foxtail, Green ([11]; 16 g ai/ha, Preemergence) | Plant response rating, Crabgrass, Large ([14]; Postemergence, 16 g ai/ha)
70: Plant response rating, Dallisgrass ([1]; Postemergence, 16 g ai/ha) | Plant response rating, Foxtail, Green ([11]; Postemergence, 16 g ai/ha) | Plant response rating, Goosegrass ([13]; Postemergence, 16 g ai/ha)
75: Plant response rating, Dallisgrass ([1]; Postemergence, 31 g ai/ha) | Plant response rating, Dallisgrass ([1]; Postemergence, 62 g ai/ha) | Plant response rating, Sandbur, S. ([4]; Postemergence, 8 g ai/ha) | Plant response rating, Bermudagrass ([6]; 16 g ai/ha, Preemergence) | Plant response rating, Johnsongrass ([7]; 16 g ai/ha, Preemergence) | Plant response rating, Johnsongrass ([7]; Postemergence, 16 g ai/ha) | Plant response rating, Johnsongrass ([7]; Postemergence, 31 g ai/ha) | Plant response rating, Foxtail, Green ([11]; 8 g ai/ha, Preemergence) | Plant response rating, Foxtail, Green ([11]; Postemergence, 31 g ai/ha) | Plant response rating, Goosegrass ([13]; 8 g ai/ha, Preemergence)
20: Plant response rating, Bermudagrass ([6]; 8 g ai/ha, Preemergence)
40: Plant response rating, Bermudagrass ([6]; Postemergence, 16 g ai/ha)
100: Plant response rating, Dallisgrass ([1]; 62 g ai/ha, Preemergence) | Plant response rating, Sandbur, S. ([4]; 31 g ai/ha, Preemergence) | Plant response rating, Sandbur, S. ([4]; 62 g ai/ha, Preemergence) | Plant response rating, Sandbur, S. ([4]; Postemergence, 62 g ai/ha) | Plant response rating, Quackgrass ([5]; 62 g ai/ha, Preemergence) | Plant response rating, Bermudagrass ([6]; 62 g ai/ha, Preemergence) | Plant response rating, Surinam Grass ([9]; 16 g ai/ha, Preemergence) | Plant response rating, Surinam Grass ([9]; 31 g ai/ha, Preemergence) | Plant response rating, Surinam Grass ([9]; 62 g ai/ha, Preemergence) | Plant response rating, Surinam Grass ([9]; Postemergence, 16 g ai/ha) | Plant response rating, Surinam Grass ([9]; Postemergence, 31 g ai/ha) | Plant response rating, Surinam Grass ([9]; Postemergence, 62 g ai/ha) | Plant response rating, Barnyardgrass ([10]; 31 g ai/ha, Preemergence) | Plant response rating, Barnyardgrass ([10]; 62 g ai/ha, Preemergence) | Plant response rating, Barnyardgrass ([10]; Postemergence, 8 g ai/ha) | Plant response rating, Barnyardgrass ([10]; Postemergence, 16 g ai/ha) | Plant response rating, Barnyardgrass ([10]; Postemergence, 31 g ai/ha) | Plant response rating, Barnyardgrass ([10]; Postemergence, 62 g ai/ha) | Plant response rating, Foxtail, Green ([11]; 62 g ai/ha, Preemergence) | Plant response rating, Goosegrass ([13]; 31 g ai/ha, Preemergence) | Plant response rating, Goosegrass ([13]; 62 g ai/ha, Preemergence) | Plant response rating, Crabgrass, Large ([14]; 62 g ai/ha, Preemergence)
65: Plant response rating, Bermudagrass ([6]; Postemergence, 62 g ai/ha) | Plant response rating, Crabgrass, Large ([14]; Postemergence, 8 g ai/ha)
98: Plant response rating, Dallisgrass ([1]; 16 g ai/ha, Preemergence) | Plant response rating, Dallisgrass ([1]; 31 g ai/ha, Preemergence) | Plant response rating, Johnsongrass ([7]; 62 g ai/ha, Preemergence) | Plant response rating, Foxtail, Green ([11]; 31 g ai/ha, Preemergence) | Plant response rating, Crabgrass, Large ([14]; 31 g ai/ha, Preemergence) | Plant response rating, Crabgrass, Large ([14]; Postemergence, 62 g ai/ha)
95: Plant response rating, Sandbur, S. ([4]; Postemergence, 31 g ai/ha) | Plant response rating, Quackgrass ([5]; 31 g ai/ha, Preemergence) | Plant response rating, Bermudagrass ([6]; 31 g ai/ha, Preemergence) | Plant response rating, Johnsongrass ([7]; Postemergence, 62 g ai/ha) | Plant response rating, Surinam Grass ([9]; Postemergence, 8 g ai/ha) | Plant response rating, Foxtail, Green ([11]; Postemergence, 62 g ai/ha) | Plant response rating, Goosegrass ([13]; Postemergence, 62 g ai/ha) | Plant response rating, Crabgrass, Large ([14]; Postemergence, 31 g ai/ha)
80: Plant response rating, Johnsongrass ([7]; 31 g ai/ha, Preemergence) | Plant response rating, Goosegrass ([13]; 16 g ai/ha, Preemergence) | Plant response rating, Goosegrass ([13]; Postemergence, 31 g ai/ha)
50: Plant response rating, Bermudagrass ([6]; Postemergence, 31 g ai/ha)

Source: US20100267561A1, “HERBICIDAL PYRIDAZINONE DERIVATIVES” (priority 2007, published 2010)
